Measurements reported in patent US10294207B2, “Pyrazole derivatives as TNIK, IKKϵ and TBK1 inhibitor and pharmaceutical composition comprising same” (GREEN CROSS CORPORATION, priority 2015, dated 2019).

Tests used:
[1] = target: T1, TBK1 (Homo sapiens, UniProt Q9UHD2); assay: TBK1 inhibition, ADP-Glo Kinase Assay; type: biochemical; conditions: luminometer
T1 construct: purchased Promega V3991
T1 sequence (Q9UHD2 1-729): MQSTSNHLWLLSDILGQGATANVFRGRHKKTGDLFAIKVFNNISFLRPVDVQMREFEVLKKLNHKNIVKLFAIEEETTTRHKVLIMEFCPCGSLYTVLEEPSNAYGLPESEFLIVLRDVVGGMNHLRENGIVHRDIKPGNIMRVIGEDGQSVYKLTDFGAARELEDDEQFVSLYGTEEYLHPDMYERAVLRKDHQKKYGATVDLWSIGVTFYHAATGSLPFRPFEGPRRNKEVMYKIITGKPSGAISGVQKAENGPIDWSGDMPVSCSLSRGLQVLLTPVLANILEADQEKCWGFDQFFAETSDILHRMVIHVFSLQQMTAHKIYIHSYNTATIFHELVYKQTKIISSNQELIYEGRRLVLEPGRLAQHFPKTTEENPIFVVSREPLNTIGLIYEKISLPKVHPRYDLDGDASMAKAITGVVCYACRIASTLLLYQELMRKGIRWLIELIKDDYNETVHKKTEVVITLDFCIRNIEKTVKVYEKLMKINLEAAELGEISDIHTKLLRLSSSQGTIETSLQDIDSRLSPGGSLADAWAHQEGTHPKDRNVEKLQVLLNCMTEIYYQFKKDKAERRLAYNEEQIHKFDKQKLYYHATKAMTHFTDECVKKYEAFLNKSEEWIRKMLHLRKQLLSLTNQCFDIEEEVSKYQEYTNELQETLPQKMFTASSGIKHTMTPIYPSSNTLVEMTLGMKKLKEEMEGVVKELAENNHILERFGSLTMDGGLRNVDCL
Method in brief: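 Each recombinant kinase enzyme system was run per the manufacturer's protocol in 40 mM Tris pH 7.5, 20 mM MgCl2 and 0.1 mg/mL BSA. Kinase activity was detected as ADP formation by ADP-Glo luminescence.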

[2] = target: T2, IKKε (Homo sapiens, UniProt Q14164); assay: IKKε inhibition, ADP-Glo Kinase Assay; type: biochemical; conditions: luminometer
T2 construct: purchased Invitrogen PR8031B
T2 sequence (Q14164 1-716): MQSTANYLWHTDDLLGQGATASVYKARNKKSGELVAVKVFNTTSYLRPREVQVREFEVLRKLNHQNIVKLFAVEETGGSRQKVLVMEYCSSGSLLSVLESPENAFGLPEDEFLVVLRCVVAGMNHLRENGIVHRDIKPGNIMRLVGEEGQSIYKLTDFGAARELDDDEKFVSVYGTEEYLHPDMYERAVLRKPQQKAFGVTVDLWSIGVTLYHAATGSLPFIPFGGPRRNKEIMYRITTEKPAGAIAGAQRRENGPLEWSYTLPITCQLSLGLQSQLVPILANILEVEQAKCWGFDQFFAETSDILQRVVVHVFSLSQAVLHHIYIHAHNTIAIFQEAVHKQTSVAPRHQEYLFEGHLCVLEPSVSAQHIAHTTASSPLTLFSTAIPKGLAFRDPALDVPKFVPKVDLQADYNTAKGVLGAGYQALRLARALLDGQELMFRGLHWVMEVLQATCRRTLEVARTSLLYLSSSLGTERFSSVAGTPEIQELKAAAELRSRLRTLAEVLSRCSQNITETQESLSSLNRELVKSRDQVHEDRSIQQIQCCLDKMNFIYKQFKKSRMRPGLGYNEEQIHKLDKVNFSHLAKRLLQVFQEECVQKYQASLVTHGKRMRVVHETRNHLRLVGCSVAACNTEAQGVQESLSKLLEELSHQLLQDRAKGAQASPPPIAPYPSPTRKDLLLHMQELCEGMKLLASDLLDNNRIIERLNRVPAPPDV
Method: Inhibition activities on TNIK, IKKε and TBK1 were evaluated using the compounds of Examples 1 to 254.
The inhibition activities on TNIK, IKKε and TBK1 were measured by a luminometer, TNIK/IKKε/TBK1 Kinase Enzyme System (Promega, Ca# V4158; Invitrogen, PR8031B, Promega, Ca# V3991) and ADP-Glo Kinase Assay using ADP-Glo™ Kinase Analysis Kit (Promega, Ca# V9101) and a kinase reaction buffer [40 mM Tris(pH 7.5), 20 mM MgCl2, 0.1 mg/mL BSA] in accordance with the manufacturer's protocol.

Row | SMILES | IC50 [1] [µM] | IC50 [2] [µM]
1 | CCCC(NC(=O)c1ccc2[nH]nc(NC(=O)c3ccc(N4CCN(C)CC4)cc3)c2c1)c1cccs1 (centres unmarked) [Example 59, 3-(4-(4-Methylpiperazin-1-yl)benzamido)-N-(1-(thiophen-2-yl)butyl)-1H-indazole-5-carboxamide] | 0.032 | 0.11
2 | CN1CCN(c2ccc(C(=O)Nc3n[nH]c4ccc(C(=O)NCc5ccno5)cc34)cc2)CC1 [Example 178, N-(Isoxazol-5-ylmethyl)-3-(4-(4-methylpiperazin-1-yl)benzamido)-1H-indazole-5-carboxamide] | 0.037 | 0.16
3 | COCCCNc1ccc(C(=O)Nc2n[nH]c3ccc(C(=O)NCc4cccs4)cc23)cc1 [Example 151, 3-(4-((3-Methoxypropyl)amino)benzamido)-N-(thiophen-2-ylmethyl)-1H-indazole-5-carboxamide] | 0.0079 | 0.052
4 | O=C(NCc1cccs1)c1ccc2[nH]nc(NC(=O)c3ccc(C4=CCNCC4)cc3)c2c1 [Example 199, 3-(4-(1,2,3,6-Tetrahydropyridin-4-yl)benzamido)-N-(thiophen-2-ylmethyl)-1H-indazole-5-carboxamide] | 0.0097 | 0.14
5 | Cc1ccc(CNC(=O)c2ccc3[nH]nc(NC(=O)c4ccc(N5CCOCC5)cc4)c3c2)s1 [Example 60, N-((5-Methylthiophen-2-yl)methyl)-3-(4-morpholinobenzamido)-1H-indazole-5-carboxamide] | 0.034 | 0.28
6 | O=C(NCc1cccs1)c1ccc2[nH]nc(NC(=O)c3ccc(NCCN4CCOCC4)cc3)c2c1 [Example 153, 3-(4-((2-morpholinoethyl)amino)benzamido)-N-(thiophen-2-ylmethyl)-1H-indazole-5-carboxamide] | 0.0037 | 0.037
7 | CN1CCN(c2ccc(C(=O)Nc3n[nH]c4ccc(C(=O)NCc5cccs5)cc34)cc2)CC1 [Example 149, 3-(4-(4-methylpiperazin-1-yl)benzamido)-N-(thiophen-2-ylmethyl)-1H-indazole-5-carboxamide] | 0.0075 | 0.032
8 | CN1CCN(c2ccc(C(=O)Nc3n[nH]c4ccc(C(=O)NCC5CCCCC5)cc34)cc2)CC1 [Example 87, N-(Cyclohexylmethyl)-3-(4-(4-methylpiperazin-1-yl)benzamido)-1H-indazole-5-carboxamide] | 0.018 | 0.072
9 | CC(NC(=O)c1ccc2[nH]nc(NC(=O)c3ccc(N4CCOCC4)cc3)c2c1)c1ccccn1 (centres unmarked) [Example 127, 3-(4-Morpholinobenzamido)-N-(1-(pyridin-2-yl)ethyl)-1H-indazole-5-carboxamide] | 0.027 | 0.14
10 | CN1CCN(c2ccc(C(=O)Nc3n[nH]c4ccc(C(=O)NCc5ccc(C(F)(F)F)cc5)cc34)cc2)CC1 [Example 66, 3-(4-(4-Methylpiperazin-1-yl)benzamido)-N-(4-(trifluoromethyl)benzyl)-1H-indazole-5-carboxamide] | 0.98 | 3.19
11 | Cn1cc(C(=O)Nc2n[nH]c3ccc(C(=O)NCc4cccs4)cc23)cn1 [Example 7, 3-(1-Methyl-1H-pyrazole-4-carboxamido)-N-(thiophen-2-ylmethyl)-1H-indazole-5-carboxamide] | 0.16 | 0.25
12 | O=C(Nc1n[nH]c2ccc(C(=O)NC(c3cccnc3)C3CC3)cc12)c1ccc(N2CCOCC2)cc1 (centres unmarked) [Example 142, N-(Cyclopropyl(pyridin-3-yl)methyl)-3-(4-morpholinobenzamido)-1H-indazole-5-carboxamide] | 0.067 | 0.096
13 | CC[C@@H](NC(=O)c1ccc2[nH]nc(NC(=O)c3ccc(N4CCN(C)CC4)cc3)c2c1)c1cccs1 [Example 112, (R)-3-(4-(4-Methylpiperazin-1-yl)benzamido)-N-(1-(thiophen-2-yl)propyl)-1H-indazole-5-carboxamide] | 0.0042 | 0.011
14 | O=C(NCC1CC1)c1ccc2[nH]nc(NC(=O)c3ccc(F)cc3)c2c1 [Example 23, N-(Cyclopropylmethyl)-3-(4-fluorobenzamido)-1H-indazole-5-carboxamide] | 1.41 | 5.58
15 | CN(C)CCCNc1ccc(C(=O)Nc2n[nH]c3ccc(C(=O)NCc4cccs4)cc23)cc1 [Example 154, 3-(4-((3-(Dimethylamino)propyl)amino)benzamido)-N-(thiophen-2-ylmethyl)-1H-indazole-5-carboxamide] | 0.0086 | 0.13
16 | CC(NC(=O)c1ccc2[nH]nc(NC(=O)c3ccc(N4C[C@@H](C)N[C@@H](C)C4)cc3)c2c1)c1ccccc1 (stereo partly drawn) [Example 186, 3-(4-((3R,5S)-3,5-Dimethylpiperazin-1-yl)benzamido)-N-(1-phenylethyl)-1H-indazole-5-carboxamide] | 0.0027 | 0.012
17 | O=C(NCc1nccs1)c1ccc2[nH]nc(NC(=O)c3ccc(N4CCOCC4)cc3)c2c1 [Example 104, 3-(4-Morpholinobenzamido)-N-(thiazol-2-ylmethyl)-1H-indazole-5-carboxamide 2,2,2-trifluoroacetate] | 0.026 | 0.37
18 | O=C(Nc1n[nH]c2ccc(C(=O)NC3(c4ccccn4)CC3)cc12)c1ccc(F)cc1 [Example 216, 3-(4-Fluorobenzamido)-N-(1-(pyridin-2-yl)cyclopropyl)-1H-indazole-5-carboxamide] | 3.7 | 5.25
19 | CC(C)CC(NC(=O)c1ccc2[nH]nc(NC(=O)c3ccc(F)cc3)c2c1)c1cccs1 (centres unmarked) [Example 33, 3-(4-Fluorobenzamido)-N-(3-methyl-1-(thiophen-2-yl)butyl)-1H-indazole-5-carboxamide] | 4.69 | 6.36
20 | O=C(NCc1ccc(C(F)(F)F)cc1)c1ccc2[nH]nc(NC(=O)c3ccc(F)cc3)c2c1 [Example 21, 3-(4-Fluorobenzamido)-N-(4-(trifluoromethyl)benzyl)-1H-indazole-5-carboxamide] | > 10 | > 10
21 | O=C(NCc1cccs1)c1ccc2[nH]nc(NC(=O)c3ccc(NCCC4=CCCCC4)cc3)c2c1 [Example 167, 3-(4-((2-(Cyclohex-1-en-1-yl)ethyl)amino)benzamido)-N-(thiophen-2-ylmethyl)-1H-indazole-5-carboxamide] | 1.1 | 3.9
22 | CC(C)CC(NC(=O)c1ccc2[nH]nc(NC(=O)c3ccc(N4CCN(C)CC4)cc3)c2c1)c1cccs1 (centres unmarked) [Example 129, N-(3-Methyl-1-(thiophen-2-yl)butyl)-3-(4-(4-methylpiperazin-1-yl)benzamido)-1H-indazole-5-carboxamide] | 0.022 | 0.054
23 | O=C(NCc1ccccc1)c1ccc2[nH]nc(NC(=O)c3ccc(N4CCOCC4)cc3)c2c1 [Example 177, N-Benzyl-3-(4-morpholinobenzamido)-1H-indazole-5-carboxamide] | 0.011 | 0.033
24 | CN1CCN(c2ccc(C(=O)Nc3n[nH]c4ccc(C(=O)NCc5ccc(Cl)s5)cc34)cc2)CC1 [Example 146, N-((5-chlorothiophen-2-yl)methyl)-3-(4-(4-methylpiperazin-1-yl)benzamido)-1H-indazole-5-carboxamide] | 0.019 | 0.065
25 | O=C(NCc1ccc(C(F)(F)F)nc1)c1ccc2[nH]nc(NC(=O)c3ccc(N4CCOCC4)cc3)c2c1 [Example 71, 3-(4-Morpholinobenzamido)-N-((6-(trifluoromethyl)pyridin-3-yl)methyl)-1H-indazole-5-carboxamide] | 0.44 | > 10
